Data set [1] can be described thus: Isocratic point, elution from C18 prep-scale column. It counts as physicochemical. To be noted: elution from C18 column. As to the method: PCC compounds were purified on a Waters Autopurification system, which isolated compounds based on MS peaks corresponding to protonated [M+1H]^+ and [M+2H]^2+, and/or sodium adducts [M+Na]^+ and [M+2Na]^2+. The isocratic points of PCCs were determined based on the elution of the compound from a C18 prep-scale column. Synthetic epitopes were either purified on the Waters Autopurification System, or by semi-preparative HPLC and then using matrix-assisted laser desorption/ionization mass spectroscopy to identify fractions with the desired m/z ratio. The resulting peptides were lyophilized, the yield determined by mass difference or UV-visible absorbance, and resuspended at a concentration of up to 10 mM peptide in DMSO. Peptides were stored at −80° C. before thawing for each use.

In data set [2] the target is full-length recombinant MrkA protein (Klebsiella pneumoniae, UniProt P12267). It counts as binding. Particulars: for affinities to MrkA: ELISA, stated as 'likely'; for binding to full-length MrkA compared to cy(LLFFF): sandwich ELISA, alanine scan and analogues. The text has this: HPraGly is present before X1 in each peptide and Az4 follows X5 in each peptide.
In general terms: ELISA stands for enzyme-linked immunosorbent assay.

Like-named read-outs stand apart in the source and are kept apart here. Bridge positions count the residues as written; N and C are the ends. Square brackets hold non-standard residues; d marks the D form. Triazole bridges read from a SMILES are 1,4-linked. Peptide text beside a SMILES is read from it. * marks the point of attachment. Biotin = O=C1N[C@H]2[C@H](CS[C@H]2CCCCC(=O)*)N1; PEG10 = NCCOCCOCCOCCOCCOCCOCCOCCOCCOCCOCCC(=O)O; Lys(N3) = [N-]=[N+]=NCCCC[C@H](N)C(=O)O; Orn(N3) = [N-]=[N+]=NCCC[C@H](N)C(=O)O; Phe(4-F) = N[C@@H](Cc1ccc(F)cc1)C(=O)O; PEG5 = NCCOCCOCCOCCOCCOCCC(=O)O; Pra = C#CC[C@H](N)C(=O)O

For `CC(C)C[C@@H]1NC(=O)[C@@H](NC(=O)CCOCCOCCOCCOCCOCCOCCOCCOCCOCCOCCNC(=O)CCCC[C@@H]2SC[C@@H]3NC(=O)N[C@@H]32)Cc2cn(nn2)CCCC[C@@H](C(N)=O)NC(=O)[C@H](Cc2ccccc2)NC(=O)[C@H](Cc2ccccc2)NC(=O)[C@H](Cc2ccccc2)NC(=O)[C@H](CC(C)C)NC1=O` [Ref. compound] ({Biotin-PEG10}-[Pra]LLFFF[Lys(N3)]-NH2; triazole 1-7), the “Isocratic point (%)” value in data set [1] (N-terminal tag Bio-Peg10-peg10-) is 74.53%; in data set [1] (N-terminal tag Bio-peg5-), 78.85%; in data set [1] (N-terminal tag Bio-peg10-), 75.88%. The “Relative affinity (ratio of ELISA signal versus cy(LLFFF))” value in data set [2] (ELISA 1, [MrkA] for ELISA N/A) amounted to 1.00; in data set [2] (ELISA 2, [MrkA] 25 nM), 1.00; in data set [2] (ELISA 3, [MrkA] 50 nM) it was 1.00; in data set [2] (ELISA 4, [MrkA] 100 nM), 1.00; in data set [2] (ELISA 5, [MrkA] 25 nM), 1.00; in data set [2] (ELISA 6, [MrkA] 25 nM), 1.00.

For `CC(C)C[C@@H]1NC(=O)[C@H](C)NC(=O)[C@@H](NC(=O)CCOCCOCCOCCOCCOCCOCCOCCOCCOCCOCCNC(=O)CCCC[C@@H]2SC[C@@H]3NC(=O)N[C@@H]32)Cc2cn(nn2)CCCC[C@@H](C(N)=O)NC(=O)[C@H](Cc2ccccc2)NC(=O)[C@H](Cc2ccccc2)NC(=O)[C@H](Cc2ccccc2)NC1=O` [compound 2] ({Biotin-PEG10}-[Pra]ALFFF[Lys(N3)]-NH2; triazole 1-7), in data set [1], the “Isocratic point (%)” value worked out at 65.55%. In data set [2] (ELISA 2, [MrkA] 25 nM), the “Relative affinity (ratio of ELISA signal versus cy(LLFFF))” value is listed as 0.53.

As for `CC(C)C[C@@H]1NC(=O)[C@@H](NC(=O)CCOCCOCCOCCOCCOCCOCCOCCOCCOCCOCCNC(=O)CCCC[C@@H]2SC[C@@H]3NC(=O)N[C@@H]32)Cc2cn(nn2)CCCC[C@@H](C(N)=O)NC(=O)[C@H](Cc2ccccc2)NC(=O)[C@H](Cc2ccccc2)NC(=O)[C@H](Cc2ccccc2)NC(=O)[C@H](C)NC1=O` [compound 3] ({Biotin-PEG10}-[Pra]LAFFF[Lys(N3)]-NH2; triazole 1-7), in data set [1], the “Isocratic point (%)” value is reported as 66.00%. The “Relative affinity (ratio of ELISA signal versus cy(LLFFF))” value in data set [2] (ELISA 2, [MrkA] 25 nM) is 0.26.

Turning to `CC(C)C[C@@H]1NC(=O)[C@H](CC(C)C)NC(=O)[C@@H](NC(=O)CCOCCOCCOCCOCCOCCOCCOCCOCCOCCOCCNC(=O)CCCC[C@@H]2SC[C@@H]3NC(=O)N[C@@H]32)Cc2cn(nn2)CCCC[C@@H](C(N)=O)NC(=O)[C@H](Cc2ccccc2)NC(=O)[C@H](Cc2ccccc2)NC(=O)[C@H](C)NC1=O` [compound 4] ({Biotin-PEG10}-[Pra]LLAFF[Lys(N3)]-NH2; triazole 1-7), in data set [1], the “Isocratic point (%)” value was determined as 70.97%. Moreover, in data set [2] (ELISA 2, [MrkA] 25 nM), the “Relative affinity (ratio of ELISA signal versus cy(LLFFF))” value is 0.59.

In the case of `CC(C)C[C@@H]1NC(=O)[C@@H](NC(=O)CCOCCOCCOCCOCCOCCOCCOCCOCCOCCOCCNC(=O)CCCC[C@@H]2SC[C@@H]3NC(=O)N[C@@H]32)Cc2cn(nn2)CCCC[C@@H](C(N)=O)NC(=O)[C@H](Cc2ccccc2)NC(=O)[C@H](C)NC(=O)[C@H](Cc2ccccc2)NC(=O)[C@H](CC(C)C)NC1=O` [compound 5] ({Biotin-PEG10}-[Pra]LLFAF[Lys(N3)]-NH2; triazole 1-7), the “Isocratic point (%)” value in data set [1] was 66.00%. Moreover, the “Relative affinity (ratio of ELISA signal versus cy(LLFFF))” value in data set [2] (ELISA 2, [MrkA] 25 nM) is 0.10.

With `CC(C)C[C@@H]1NC(=O)[C@@H](NC(=O)CCOCCOCCOCCOCCOCCOCCOCCOCCOCCOCCNC(=O)CCCC[C@@H]2SC[C@@H]3NC(=O)N[C@@H]32)CCCCn2cc(nn2)C[C@@H](C(N)=O)NC(=O)[C@H](C)NC(=O)[C@H](Cc2ccccc2)NC(=O)[C@H](Cc2ccccc2)NC(=O)[C@H](CC(C)C)NC1=O` [compound 6] ({Biotin-PEG10}-[Lys(N3)]LLFFA[Pra]-NH2; triazole 1-7), the “Isocratic point (%)” value in data set [1] is given as 64.43%. Also, in data set [2] (ELISA 2, [MrkA] 25 nM), the “Relative affinity (ratio of ELISA signal versus cy(LLFFF))” value was found to be 0.04.

With `C[C@@H]1NC(=O)[C@H](C)NC(=O)[C@@H](NC(=O)CCOCCOCCOCCOCCOCCOCCOCCOCCOCCOCCNC(=O)CCCC[C@@H]2SC[C@@H]3NC(=O)N[C@@H]32)Cc2cn(nn2)CCCC[C@@H](C(N)=O)NC(=O)[C@H](Cc2ccccc2)NC(=O)[C@H](Cc2ccccc2)NC(=O)[C@H](Cc2ccccc2)NC1=O` [compound 7] ({Biotin-PEG10}-[Pra]AAFFF[Lys(N3)]-NH2; triazole 1-7), in data set [1], the “Isocratic point (%)” value stood at 54.65%. Besides, the “Relative affinity (ratio of ELISA signal versus cy(LLFFF))” value in data set [2] (ELISA 3, [MrkA] 50 nM) turned out to be 0.15.

`CC(C)C[C@@H]1NC(=O)[C@@H](NC(=O)CCOCCOCCOCCOCCOCCOCCOCCOCCOCCOCCNC(=O)CCCC[C@@H]2SC[C@@H]3NC(=O)N[C@@H]32)Cc2cn(nn2)CCCC[C@@H](C(N)=O)NC(=O)[C@H](Cc2ccccc2)NC(=O)[C@H](Cc2ccccc2)NC(=O)[C@H](Cc2ccccc2)NC1=O` [compound 8] ({Biotin-PEG10}-[Pra]LFFF[Lys(N3)]-NH2; triazole 1-6): in data set [1], the “Isocratic point (%)” value was 61.84%. In addition, the “Relative affinity (ratio of ELISA signal versus cy(LLFFF))” value in data set [2] (ELISA 3, [MrkA] 50 nM) is on record as 0.46.

For `CC(C)C[C@@H]1NC(=O)[C@@H](NC(=O)CCOCCOCCOCCOCCOCCOCCOCCOCCOCCOCCNC(=O)CCCC[C@@H]2SC[C@@H]3NC(=O)N[C@@H]32)Cc2cn(nn2)CCC[C@@H](C(N)=O)NC(=O)[C@H](Cc2ccccc2)NC(=O)[C@H](Cc2ccccc2)NC(=O)[C@H](Cc2ccccc2)NC(=O)[C@H](CC(C)C)NC1=O` [compound 10] ({Biotin-PEG10}-[Pra]LLFFF[Orn(N3)]-NH2; triazole 1-7), the “Isocratic point (%)” value in data set [1] is recorded as 76.89%. For the same molecule, the “Relative affinity (ratio of ELISA signal versus cy(LLFFF))” value in data set [2] (ELISA 3, [MrkA] 50 nM) was 0.89.

For the molecule `CC(C)C[C@@H]1NC(=O)[C@@H](NC(=O)CCOCCOCCOCCOCCOCCOCCOCCOCCOCCOCCNC(=O)CCCC[C@@H]2SC[C@@H]3NC(=O)N[C@@H]32)Cc2cn(nn2)CCCC[C@@H](C(N)=O)NC(=O)[C@H](Cc2ccc(F)cc2)NC(=O)[C@H](Cc2ccccc2)NC(=O)[C@H](Cc2ccccc2)NC(=O)[C@H](CC(C)C)NC1=O` [compound 11] ({Biotin-PEG10}-[Pra]LLFF[Phe(4-F)][Lys(N3)]-NH2; triazole 1-7), the “Isocratic point (%)” value in data set [1] worked out at 75.53%. Also, in data set [2] (ELISA 3, [MrkA] 50 nM), the “Relative affinity (ratio of ELISA signal versus cy(LLFFF))” value is reported as 0.88.

`C[C@@H](O)[C@@H]1NC(=O)[C@@H](NC(=O)CCOCCOCCOCCOCCOCCNC(=O)CCCC[C@@H]2SC[C@@H]3NC(=O)N[C@@H]32)Cc2cn(nn2)CCCC[C@@H](C(N)=O)NC(=O)[C@H](Cc2ccccc2)NC(=O)[C@H](Cc2ccccc2)NC(=O)[C@H](Cc2ccccc2)NC(=O)[C@H]([C@@H](C)O)NC1=O` [compound 13] ({Biotin-PEG5}-[Pra]TTFFF[Lys(N3)]-NH2; triazole 1-7): the “Isocratic point (%)” value in data set [1] was 53.40%. Further, the “Relative affinity (ratio of ELISA signal versus cy(LLFFF))” value in data set [2] (ELISA 4, [MrkA] 100 nM) is recorded as 0.04.

`CC(C)C[C@@H]1NC(=O)[C@@H](NC(=O)CCOCCOCCOCCOCCOCCOCCOCCOCCOCCOCCNC(=O)[C@H](CCCNC(=N)N)NC(=O)[C@H](CCCNC(=N)N)NC(=O)[C@H](CCCNC(=N)N)NC(=O)CCOCCOCCOCCOCCOCCOCCOCCOCCOCCOCCNC(=O)CCCC[C@@H]2SC[C@@H]3NC(=O)N[C@@H]32)Cc2cn(nn2)CCCC[C@@H](C(N)=O)NC(=O)[C@H](Cc2ccccc2)NC(=O)[C@H](Cc2ccccc2)NC(=O)[C@H](Cc2ccccc2)NC(=O)[C@H](CC(C)C)NC1=O` [compound 16] ({Biotin-PEG10}-RRR[PEG10][Pra]LLFFF[Lys(N3)]-NH2; triazole 5-11): the “Isocratic point (%)” value in data set [1] was 45.02%. Further, the “Relative affinity (ratio of ELISA signal versus cy(LLFFF))” value in data set [2] (ELISA 5, [MrkA] 25 nM) was found to be 0.90.

With `CC(C)C[C@@H]1NC(=O)[C@H](CCCNC(=N)N)NC(=O)[C@H](Cc2c[nH]cn2)NC(=O)[C@H](C(C)C)NC(=O)CNC(=O)[C@@H](NC(=O)CCOCCOCCOCCOCCOCCNC(=O)CCCC[C@@H]2SC[C@@H]3NC(=O)N[C@@H]32)Cc2cn(nn2)CCCC[C@@H](C(N)=O)NC1=O` [cy(GVHRL)] ({Biotin-PEG5}-[Pra]GVHRL[Lys(N3)]-NH2; triazole 1-7), in data set [2], the “affinities to MrkA” value was about 1 µM and the “binding to full-length MrkA compared to cy(LLFFF)” value (from here on “binding … compared to cy(LLFFF)”) was “lower affinities”.

Regarding `C[C@@H](O)[C@@H]1NC(=O)[C@@H](NC(=O)CCOCCOCCOCCOCCOCCNC(=O)CCCC[C@@H]2SC[C@@H]3NC(=O)N[C@@H]32)Cc2cn(nn2)CCCC[C@@H](C(N)=O)NC(=O)[C@H](Cc2ccccc2)NC(=O)[C@H](Cc2ccccc2)NC(=O)[C@H](Cc2ccccc2)NC(=O)[C@H]([C@@H](C)O)NC1=O` [cy(TTFFF)] ({Biotin-PEG5}-[Pra]TTFFF[Lys(N3)]-NH2; triazole 1-7; N-terminus assumed), in data set [2], the “affinities to MrkA” value is about 1 µM and the “binding … compared to cy(LLFFF)” value was “lower affinities”.

For the molecule `CC(C)C[C@@H]1NC(=O)[C@H](Cc2c[nH]cn2)NC(=O)[C@H](CCCNC(=N)N)NC(=O)[C@H](Cc2ccc(O)cc2)NC(=O)[C@@H](NC(=O)CCOCCOCCOCCOCCOCCNC(=O)CCCC[C@@H]2SC[C@@H]3NC(=O)N[C@@H]32)Cc2cn(nn2)CCCC[C@@H](C(N)=O)NC(=O)CNC1=O` [cy(YRHLG)] ({Biotin-PEG5}-[Pra]YRHLG[Lys(N3)]-NH2; triazole 1-7), in data set [2], the “affinities to MrkA” value was about 1 µM and the “binding … compared to cy(LLFFF)” value is on record as “lower affinities”.

Take cy(ALFFF) (cyclic): the “binding … compared to cy(LLFFF)” value in data set [2] was “Modestly lower binding”.

With cy(LAFFF) (cyclic), the “binding … compared to cy(LLFFF)” value in data set [2] is “Modestly lower binding”.

For cy(LLAFF) (cyclic), the “binding … compared to cy(LLFFF)” value in data set [2] is on record as “Modestly lower binding”.

(Values after patent US12201679B2, “Epitope-targeted peptide immunostimulants” (priority 2019, dated 2025).)
